Laboratory results published in US12208130B2, “Treatment of women affected with polycystic ovary syndrome” (INSTITUT NATIONAL DE LA SANTE ET DE LA RECHERCHE MEDICALE …, priority 2017, dated 2025).
Where a SMILES comes first, the peptide text is derived from it. [ ]: non-standard residue; d: D form. dPhe(4-Cl) = N[C@H](Cc1ccc(Cl)cc1)C(=O)O; d2Nal = N[C@H](Cc1ccc2ccccc2c1)C(=O)O; dCit = NC(=O)NCCC[C@@H](N)C(=O)O; d3Pal = N[C@H](Cc1cccnc1)C(=O)O

Tested on: PAMH mice
Experiment: Postnatal GnRH antagonist treatment in PAMH mice: estrous cyclicity, ovaries, hormone levels
Type: in vivo, mouse
Experimental: FIG. 6A-6G. Postnatal GnRH antagonist treatment of PAMH mice restores the PCOS-like neuroendocrine phenotype. (FIG. 6A) Schematic of experimental design whereby vaginal cytology (estrous cyclicity) in PAMH adult (P60-P90, n=5) was analyzed for 12 days before and after postnatal intraperitoneal (i.p.) injections with 0.5 mg Kg^−1 cetrorelix acetate (PAMH+GnRH antag). Injections were administered every 2 days over 12 days and, on the first diestrus at the end of the treatment, trunk blood was collected for hormonal analysis. (FIG. 6B) Representation of estrous cyclicity of a female PAMH mouse before postnatal GnRH antagonist treatment (no treatment) and during postnatal GnRH antagonist treatment (PAMH+GnRH antag). Days of treatment are denoted by arrows. (FIG. 6C) Quantitative analysis of the % of completed estrous cycles in control (prenatal PBS-treated, n=19), PAMH (prenatal AMH-treated, n=19), and PAMH mice postnatally treated with GnRH antagonist (PAMH+GnRH antag, n=5). The horizontal line in each scatter plot corresponds to the median value. The vertical line represents the 25th-75th percentile range. Comparisons between treatment groups were performed using Kruskal-Wallis test followed by Dunn's post hoc analysis test (control vs PAMH ***P<0.0001; control vs PAMH+GnRH antag, P>0.999; PAMH vs PAMH+GnRH antag, *P=0.015). (FIG. 6D) Scatter plot representing the percentage (%) of time spent in each estrous cycle. The horizontal line in each scatter plot corresponds to the median value. The vertical line represents the 25th-75th percentile range. The percentage (%) of time spent in each estrous cycle was quantified in control, PAMH and PAMH+GnRH antag animals groups, as described above. Comparisons between treatment groups were performed using Kruskal-Wallis test followed by Dunn's post hoc analysis test (M/D: control vs PAMH ***P<0.0001; control vs PAMH+GnRH antag, P>0.999; PAMH vs PAMH+GnRH antag, *P=0.0051; E: control vs PAMH ***P<0.0001; control vs PAMH+GnRH antag, P>0.999; PAMH vs PAMH+GnRH antag, *P=0.014; P: control vs PAMH ***P<0.0001; control vs PAMH+GnRH antag, P>0.999; PAMH vs PAMH+GnRH antag, **P=0.0007). In FIG. 6D, (●): control; light grey point: PAMH; “○”: PAMH+GnRH antagonist. (FIG. 6E) Representative photomicrographs of ovaries from adult (P60-P90) control, PAMH and PAMH+GnRH antag mice. Ovary sections (5 μm thick) were stained with haematoxylin-eosin. (FIG. 6F) Mean T levels were measured in diestrus adult control (n=7), PAMH (n=5) and PAMH+GnRH antag (n=5) animals. Comparisons between treatment groups were performed using One-way ANOVA and Tukey's multiple comparisons post-hoc test, F (2,14)=29.24, ***P<0.0001. (FIG. 6G) Mean LH levels were measured in diestrus adult control (n=9), PAMH (n=10) and PAMH+GnRH antag (n=5) animals. Comparisons between treatment groups were performed using One-way ANOVA and Tukey's multiple comparisons post-hoc test, F(2,21)=65.78, ***P<0.0001. Abbreviations: M/D, Metestrus/Diestrus; E, Estrus; P, Proestrus; A, atretic follicles; CL, corpora lutea; AF, antral follcicles.
(FIG. 10A) Schematic of experimental design whereby vaginal cytology (estrous cyclicity) in PAMH adult mice (P90, n=6) was analyzed during 3 months, before and after postnatal intraperitoneal (i.p.) injections with 0.05, 0.5 and 5 mg/Kg Cetrorelix acetate. The Y axis refers to the different stages of the estrous cycle: Metaestrus/Diestrus (M/D), Estrus (E) and Proestrus (P). The X axis represents the time-course of the experiments (days). Animals were injected i.p. every second day, for 12 days, with Cetrorelix acetate at the dose of 0.05 and 0.5 mg/Kg, and every day with Cetrorelix acetate at the dose of 5 mg/Kg. Tail-blood samples were collected for LH measurements twice before the beginning of the treatments, and at day 2 and 6 of each treatment as well as 4 days after the last injection (no treatment), that followed each administration period. […]

[1] = 0.5 mg/Kg i.p. every second day for 12 days

SMILES: CC(=O)N[C@H](Cc1ccc2ccccc2c1)C(=O)N[C@H](Cc1ccc(Cl)cc1)C(=O)N[C@H](Cc1cccnc1)C(=O)N[C@@H](CO)C(=O)N[C@@H](Cc1ccc(O)cc1)C(=O)N[C@H](CCCNC(N)=O)C(=O)N[C@@H](CC(C)C)C(=O)N[C@@H](CCCNC(=N)N)C(=O)N1CCC[C@H]1C(=O)N[C@H](C)C(N)=O [Cetrorelix acetate, Ac-D-2Nal-D-Phe(4-Cl)-D-3Pal-Ser-Tyr-D-Cit-Leu-Arg-Pro-D-Ala-NH2] (Ac-[d2Nal][dPhe(4-Cl)][d3Pal]SY[dCit]LRP[dA]-NH2)
- serum LH levels of PAMH mice (0.05 mg/Kg i.p. every second day): significantly more elevated than in Control animals
- LH pulsatility in PAMH animals (0.5 mg/Kg every second day, diestrus, end of treatment): normalized the LH pulsatility
- LH levels of PAMH mice [1]: normalized
- estrous cyclicity of PAMH mice [1]: restored
- T levels of PAMH mice (0.5 mg/Kg i.p. every second day for 12 days, diestrus): normalized
- ovarian morphology of PAMH mice (0.5 mg/Kg i.p. every two days for 12 days): restored
- ovulation in PAMH animals (0.5 mg/Kg injected every 48 hours): restored ovulation
- serum LH levels of PAMH mice (5 mg/Kg i.p. daily): significantly suppressed
- reversibility of effects on LH secretion (after discontinuation of treatment, independently of dose): reversible a few days after discontinuation of treatment
